We go through 2 compounds from article PMC9362525 (Diabetologia, 2022).

Read-outs that look alike come from different tables or passages of the source.

The format of data set [1] is in vivo, human. To be noted: 6-week treatment period.
The test system of data set [2] is isolated human adipocytes. The format is cell-based. To be noted: recombinant protein.

In the case of `CCOc1ccc(Cc2cc([C@@H]3O[C@H](CO)[C@@H](O)[C@H](O)[C@H]3O)ccc2Cl)cc1` [DAPA, dapagliflozin], in data set [1], the mild hypoglycemia occurrence result is on record as “once”. In the data set with T2DM and NGT subjects (NGT), the “fractional renal extraction of glucose” value is recorded as 1.62± 1.4 and the renal glucose uptake is reported as 0.27 ± 0.08 mg/kg.min. Further, in the data set with T2DM and NGT subjects (T2DM), the “fractional renal extraction of glucose” value was 2.99±1.0 and the renal glucose uptake was 0.347 ± 0.06 mg/kg.min.
oncostatin-M: the “stimulation of basal lipolysis” value in data set [2] is given as “+47%”.
